Measurements from patent US11771709B2, “ALK protein degradation agent and anti-tumor application thereof” (ShanghaiTech University, priority 2017, dated 2023).

Legend:
[1] = target: T1, ALK protein in H3122 (EML4-ALK) cells (Homo sapiens, UniProt Q9UM73); assay: Western blot of ALK protein level (degradation, DC50), ALK phosphorylation and downstream signaling in H3122 cells; assay type: cell-based; settings: for DC50: ALK protein degradation in H3122 cells
T1 construct: EML4 (Echinoderm microtubule-associated protein-like 4, Q9HC35) fusion partner, variant 1; host or cells: NCI-H3122 lung adenocarcinoma cells; the other entry of the earlier key: EML4 (Q9HC35, Echinoderm microtubule-associated protein-like 4)

SR (NPM-ALK) cells = assay: Growth inhibition IC50 in ALCL SR cells (CCK8/WST, 72 hours); assay type: cell-based; settings: SR cells, WST
Experimental: SR (NPM-ALK) and NCI-H2228 (EML4-ALK, V3) cells were purchased from ATCC. […] All Cells were cultured in RPMI1640 medium with 10% FBS and Penicillin-Streptomycin in 37° C. incubator with 5% CO2.
Cells were seeded at specific density in 96 well plates one day before treatment. […] Viable cells were measured via CCK8 reagent and IC50s were calculated via Prism Graphad. Experiments were repeated at least three times.

[2] = 72 h, Brigatinib-based PROTAD molecules (Table 3)
[3] = Alectinib based ALK PROTAD compounds (Table 4)

T1 sequence (Q9UM73 with tags, fused parts or gaps): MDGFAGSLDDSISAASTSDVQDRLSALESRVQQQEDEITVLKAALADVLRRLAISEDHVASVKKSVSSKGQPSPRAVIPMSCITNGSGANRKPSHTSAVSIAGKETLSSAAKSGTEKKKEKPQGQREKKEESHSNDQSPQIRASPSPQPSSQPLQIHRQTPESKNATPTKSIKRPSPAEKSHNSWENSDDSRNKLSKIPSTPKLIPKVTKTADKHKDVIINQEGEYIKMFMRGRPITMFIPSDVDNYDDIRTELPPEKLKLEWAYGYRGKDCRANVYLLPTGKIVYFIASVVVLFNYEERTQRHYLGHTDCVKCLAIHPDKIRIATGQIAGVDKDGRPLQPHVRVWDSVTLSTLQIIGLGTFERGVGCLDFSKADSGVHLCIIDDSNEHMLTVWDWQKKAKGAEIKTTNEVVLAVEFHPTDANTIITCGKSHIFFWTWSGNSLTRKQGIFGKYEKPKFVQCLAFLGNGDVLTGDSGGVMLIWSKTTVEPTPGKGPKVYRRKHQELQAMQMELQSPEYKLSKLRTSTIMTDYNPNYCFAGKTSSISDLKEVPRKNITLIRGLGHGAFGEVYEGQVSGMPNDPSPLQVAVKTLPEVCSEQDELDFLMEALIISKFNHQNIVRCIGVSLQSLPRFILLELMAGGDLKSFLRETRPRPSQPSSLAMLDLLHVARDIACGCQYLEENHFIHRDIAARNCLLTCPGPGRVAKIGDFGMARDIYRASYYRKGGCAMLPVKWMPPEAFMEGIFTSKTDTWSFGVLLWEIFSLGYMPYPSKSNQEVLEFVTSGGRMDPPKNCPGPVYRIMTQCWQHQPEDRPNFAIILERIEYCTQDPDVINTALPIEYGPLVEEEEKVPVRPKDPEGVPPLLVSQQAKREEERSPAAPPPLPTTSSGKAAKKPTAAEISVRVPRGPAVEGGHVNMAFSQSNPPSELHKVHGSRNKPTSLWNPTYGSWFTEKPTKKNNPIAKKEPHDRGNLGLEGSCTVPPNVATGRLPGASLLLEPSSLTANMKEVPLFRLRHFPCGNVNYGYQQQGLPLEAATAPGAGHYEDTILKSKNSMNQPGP

Structure (SMILES) | IC50 (SR (NPM-ALK) cells; [2]) | also measured
C[C@@H](Oc1cc(-c2cnn(C3CCN(C(=O)CCOCCOCCOCCOCCNc4cccc5c4C(=O)N(C4CCC(=O)NC4=O)C5=O)CC3)c2)cnc1N)c1c(Cl)ccc(F)c1Cl (stereo partly drawn) [SIAIS151060, 4-((15-(4-(4-(6-amino-5-((R)-1-(2,6-dichloro-3-fluorophenyl)ethoxy)pyridin-3-yl)-1H-pyrazol-1-yl)piperidin-1-yl)-15-oxo-3,6,9,12-tetraoxapentadecyl)amino)-2-(2,6-dioxopiperidin-3-yl)isoindoline-1,3-dione] |  | DC50 [1]: 100 to 500 nM
C[C@@H](Oc1cc(-c2cnn(C3CCN(C(=O)CCCCNc4cccc5c4C(=O)N(C4CCC(=O)NC4=O)C5=O)CC3)c2)cnc1N)c1c(Cl)ccc(F)c1Cl (stereo partly drawn) [SIAIS151082, 4-((5-(4-(4-(6-amino-5-((R)-1-(2,6-dichloro-3-fluorophenyl)ethoxy)pyridin-3-yl)-1H-pyrazol-1-yl)piperidin-1-yl)-5-oxopentyl)amino)-2-(2,6-dioxopiperidin-3-yl)isoindoline-1,3-dione] |  | DC50 [1]: 1 to 10 nM; concentration at which ALK protein level was reduced ([1]; H3122 cells, western blot): about 50 nM
C[C@@H](Oc1cc(-c2cnn(C3CCN(C(=O)CNc4cccc5c4C(=O)N(C4CCC(=O)NC4=O)C5=O)CC3)c2)cnc1N)c1c(Cl)ccc(F)c1Cl (stereo partly drawn) [SIAIS151083, 4-((2-(4-(4-(6-amino-5-((R)-1-(2,6-dichloro-3-fluorophenyl)ethoxy)pyridin-3-yl)-1H-pyrazol-1-yl)piperidin-1-yl)-2-oxoethyl)amino)-2-(2,6-dioxopiperidin-3-yl)isoindoline-1,3-dione] |  | DC50 [1]: 10 to 50 nM
COc1cc(N2CCC(NC(=O)CCOCCNc3cccc4c3C(=O)N(C3CCC(=O)NC3=O)C4=O)CC2)ccc1Nc1ncc(Cl)c(Nc2ccccc2P(C)(C)=O)n1 (centres unmarked) [SIAIS151113] | 7.5 ± 5.2 nM | DC50 [1]: 100 to 500 nM
CCc1cc2c(cc1N1CCC(NC(=O)CCCCCCCCC(=O)N[C@H](C(=O)N3C[C@H](O)C[C@H]3C(=O)NCc3ccc(-c4scnc4C)cc3)C(C)(C)C)CC1)C(C)(C)c1[nH]c3cc(C#N)ccc3c1C2=O [SIAIS219021, N1-(1-(3-cyano-9-ethyl-6,6-dimethyl-11-oxo-6,11-dihydro-5H-benzo[b]carbazol-8-yl)piperidin-4-yl)-N10-((S)-1-((2S,4R)-4-hydroxy-2-((4-(4-methylthiazol-5-yl)benzyl)carbamoyl)pyrrolidin-1-yl)-3,3-dimethyl-1-oxobutan-2-yl)decanediamide] |  | IC50 (SR (NPM-ALK) cells; [3]): 115 nM
CCc1cc2c(cc1N1CCC(NC(=O)CCOCCOCCNc3cccc4c3C(=O)N(C3CCC(=O)NC3=O)C4=O)CC1)C(C)(C)c1[nH]c3cc(C#N)ccc3c1C2=O (centres unmarked) [SIAIS219023] |  | IC50 (SR (NPM-ALK) cells; [3]): 29.3 nM
CCc1cc2c(cc1N1CCC(NC(=O)CCOCCOCCOCCOCCNc3cccc4c3C(=O)N(C3CCC(=O)NC3=O)C4=O)CC1)C(C)(C)c1[nH]c3cc(C#N)ccc3c1C2=O (centres unmarked) [SIAIS219024, N-(1-(3-cyano-9-ethyl-6,6-dimethyl-11-oxo-6,11-dihydro-5H-benzo[b]carbazol-8-yl)piperidin-4-yl)-1-((2-(2,6-dioxopiperidin-3-yl)-1,3-dioxoisoindolin-4-yl)amino)-3,6,9,12-tetraoxapentadecan-15-amide] |  | IC50 (SR (NPM-ALK) cells; [3]): 73.1 nM
COc1cc(N2CCC(N3CCN(C(=O)CCCCCCNc4cccc5c4CN(C4CCC(=O)NC4=O)C5=O)CC3)CC2)ccc1Nc1ncc(Cl)c(Nc2ccccc2P(C)(C)=O)n1 (centres unmarked) [SIAIS219124, 3-(4-((7-(4-(1-(4-((5-chloro-4-((2-(dimethylphosphoryl)phenyl)amino)pyrimidin-2-yl)amino)-3-methoxyphenyl)piperidin-4-yl)piperazin-1-yl)-7-oxoheptyl)amino)-1-oxoisoindolin-2-yl)piperidine-2,6-dione] | 2.47 ± 0.6 nM | 
COc1cc(N2CCC(NC(=O)CCCNc3cccc4c3CN(C3CCC(=O)NC3=O)C4=O)CC2)ccc1Nc1ncc(Cl)c(Nc2ccccc2P(C)(C)=O)n1 (centres unmarked) [SIAIS219128, N-(1-(4-((5-chloro-4-((2-(dimethylphosphoryl)phenyl)amino)pyrimidin-2-yl)amino)-3-methoxyphenyl)piperidin-4-yl)-4-((2-(2,6-dioxopiperidin-3-yl)-1-oxoisoindolin-4-yl)amino)butanamide] | 6.67 ± 1 nM | 
COc1cc(N2CCC(NC(=O)CNc3cccc4c3CN(C3CCC(=O)NC3=O)C4=O)CC2)ccc1Nc1ncc(Cl)c(Nc2ccccc2P(C)(C)=O)n1 (centres unmarked) [SIAIS219151, N-(1-(4-((5-chloro-4-((2-(dimethylphosphoryl)phenyl)amino)pyrimidin-2-yl)amino)-3-methoxyphenyl)piperidin-4-yl)-2-((2-(2,6-dioxopiperidin-3-yl)-1-oxoisoindolin-4-yl)amino)acetamide] | 102 ± 4.8 nM | 
COc1cc(N2CCC(NC(=O)CCCCNc3cccc4c3CN(C3CCC(=O)NC3=O)C4=O)CC2)ccc1Nc1ncc(Cl)c(Nc2ccccc2P(C)(C)=O)n1 (centres unmarked) [SIAIS219152, N-(1-(4-((5-chloro-4-((2-(dimethylphosphoryl)phenyl)amino)pyrimidin-2-yl)amino)-3-methoxyphenyl)piperidin-4-yl)-5-((2-(2,6-dioxopiperidin-3-yl)-1-oxoisoindolin-4-yl)amino)pentanamide] | 3.78 ± 0.4 nM | 
COc1cc(N2CCC(NC(=O)CCCCCNc3cccc4c3CN(C3CCC(=O)NC3=O)C4=O)CC2)ccc1Nc1ncc(Cl)c(Nc2ccccc2P(C)(C)=O)n1 (centres unmarked) [SIAIS219153, N-(1-(4-((5-chloro-4-((2-(dimethylphosphoryl)phenyl)amino)pyrimidin-2-yl)amino)-3-methoxyphenyl)piperidin-4-yl)-6-((2-(2,6-dioxopiperidin-3-yl)-1-oxoisoindolin-4-yl)amino)hexanamide] | 3.12 ± 0.2 nM | 
COc1cc(N2CCC(NC(=O)CCCCCCNc3cccc4c3CN(C3CCC(=O)NC3=O)C4=O)CC2)ccc1Nc1ncc(Cl)c(Nc2ccccc2P(C)(C)=O)n1 (centres unmarked) [SIAIS219154, N-(1-(4-((5-chloro-4-((2-(dimethylphosphoryl)phenyl)amino)pyrimidin-2-yl)amino)-3-methoxyphenyl)piperidin-4-yl)-7-((2-(2,6-dioxopiperidin-3-yl)-1-oxoisoindolin-4-yl)amino)heptanamide] | 3.8 ± 0.2 nM | 
COc1cc(N2CCC(N3CCN(C(=O)CCCNc4cccc5c4CN(C4CCC(=O)NC4=O)C5=O)CC3)CC2)ccc1Nc1ncc(Cl)c(Nc2ccccc2P(C)(C)=O)n1 (centres unmarked) [SIAIS219155, 3-(4-((4-(4-(1-(4-((5-chloro-4-((2-(dimethylphosphoryl)phenyl)amino)pyrimidin-2-yl)amino)-3-methoxyphenyl)piperidin-4-yl)piperazin-1-yl)-4-oxobutyl)amino)-1-oxoisoindolin-2-yl)piperidine-2,6-dione] | 4.34 ± 0.4 nM | 
COc1cc(N2CCC(N3CCN(C(=O)CCCCNc4cccc5c4CN(C4CCC(=O)NC4=O)C5=O)CC3)CC2)ccc1Nc1ncc(Cl)c(Nc2ccccc2P(C)(C)=O)n1 (centres unmarked) [SIAIS219156, 3-(4-((5-(4-(1-(4-((5-chloro-4-((2-(dimethylphosphoryl)phenyl)amino)pyrimidin-2-yl)amino)-3-methoxyphenyl)piperidin-4-yl)piperazin-1-yl)-5-oxopentyl)amino)-1-oxoisoindolin-2-yl)piperidine-2,6-dione] | 3.09 ± 0.2 nM | 
COc1cc(N2CCC(N3CCN(C(=O)CCCCCNc4cccc5c4CN(C4CCC(=O)NC4=O)C5=O)CC3)CC2)ccc1Nc1ncc(Cl)c(Nc2ccccc2P(C)(C)=O)n1 (centres unmarked) [SIAIS219157, 3-(4-((6-(4-(1-(4-((5-chloro-4-((2-(dimethylphosphoryl)phenyl)amino)pyrimidin-2-yl)amino)-3-methoxyphenyl)piperidin-4-yl)piperazin-1-yl)-6-oxohexyl)amino)-1-oxoisoindolin-2-yl)piperidine-2,6-dione] | 1.99 ± 0.2 nM | 
COc1cc(N2CCC(N3CCN(C(=O)CCc4cccc5c4C(=O)N(C4CCC(=O)NC4=O)C5=O)CC3)CC2)ccc1Nc1ncc(Cl)c(Nc2ccccc2P(C)(C)=O)n1 (centres unmarked) [SIAIS219158, 4-(3-(4-(1-(4-((5-chloro-4-((2-(dimethylphosphoryl)phenyl)amino)pyrimidin-2-yl)amino)-3-methoxyphenyl)piperidin-4-yl)piperazin-1-yl)-3-oxopropyl)-2-(2,6-dioxopiperidin-3-yl)isoindoline-1,3-dione] | 30.3 ± 3.8 nM | 
COc1cc(N2CCC(NC(=O)CCc3cccc4c3C(=O)N(C3CCC(=O)NC3=O)C4=O)CC2)ccc1Nc1ncc(Cl)c(Nc2ccccc2P(C)(C)=O)n1 (centres unmarked) [SIAIS219170, N-(1-(4-((5-chloro-4-((2-(dimethylphosphoryl)phenyl)amino)pyrimidin-2-yl)amino)-3-methoxyphenyl)piperidin-4-yl)-3-(2-(2,6-dioxopiperidin-3-yl)-1,3-dioxoisoindolin-4-yl)propanamide] | 10.8 ± 1.4 nM | 
COc1cc(N2CCC(NCCCCNc3cccc4c3C(=O)N(C3CCC(=O)NC3=O)C4=O)CC2)ccc1Nc1ncc(Cl)c(Nc2ccccc2P(C)(C)=O)n1 (centres unmarked) [SIAIS220026, 4-((4-((1-(4-((5-chloro-4-((2-(dimethylphosphoryl)phenyl)amino)pyrimidin-2-yl)amino)-3-methoxyphenyl)piperidin-4-yl)amino)butyl)amino)-2-(2,6-dioxopiperidin-3-yl)isoindoline-1,3-dione] | 7.4 nM | 
COc1cc(N2CCC(N3CCN(CCNc4cccc5c4C(=O)N(C4CCC(=O)NC4=O)C5=O)CC3)CC2)ccc1Nc1ncc(Cl)c(Nc2ccccc2P(C)(C)=O)n1 (centres unmarked) [SIAIS220027, 4-((2-(4-(1-(4-((5-chloro-4-((2-(dimethylphosphoryl)phenyl)amino)pyrimidin-2-yl)amino)-3-methoxyphenyl)piperidin-4-yl)piperazin-1-yl)ethyl)amino)-2-(2,6-dioxopiperidin-3-yl)isoindoline-1,3-dione] | 3.8 nM | 
COc1cc(N2CCC(N(C)C(=O)CCCNc3cccc4c3C(=O)N(C3CCC(=O)NC3=O)C4=O)CC2)ccc1Nc1ncc(Cl)c(Nc2ccccc2P(C)(C)=O)n1 (centres unmarked) [SIAIS220030, N-(1-(4-((5-chloro-4-((2-(dimethylphosphoryl)phenyl)amino)pyrimidin-2-yl)amino)-3-methoxyphenyl)piperidin-4-yl)-4-((2-(2,6-dioxopiperidin-3-yl)-1,3-dioxoisoindolin-4-yl)amino)-N-methylbutanamide] | 5.8 nM | 
